{"source": "patent US20080167319A1", "about": "“7-(4-(4-[3-CHLORO-2-(TRIFLUOROMETHYL)PHENYL]PIPERAZIN-1-YL)BUTOXY)-[1,8]-NAPHTHYRIDIN-2(1H)-ONE” (Pfizer Inc., priority 2007, published 2008)", "key": {"[1]": {"target": "T1, Dopamine D2 Receptor (hD2L) (Homo sapiens, UniProt P14416)", "T1 construct": "expressed in transfected cells; host or cells: CHO cells (CHO-hD2L)", "T1 sequence (P14416 whole entry)": "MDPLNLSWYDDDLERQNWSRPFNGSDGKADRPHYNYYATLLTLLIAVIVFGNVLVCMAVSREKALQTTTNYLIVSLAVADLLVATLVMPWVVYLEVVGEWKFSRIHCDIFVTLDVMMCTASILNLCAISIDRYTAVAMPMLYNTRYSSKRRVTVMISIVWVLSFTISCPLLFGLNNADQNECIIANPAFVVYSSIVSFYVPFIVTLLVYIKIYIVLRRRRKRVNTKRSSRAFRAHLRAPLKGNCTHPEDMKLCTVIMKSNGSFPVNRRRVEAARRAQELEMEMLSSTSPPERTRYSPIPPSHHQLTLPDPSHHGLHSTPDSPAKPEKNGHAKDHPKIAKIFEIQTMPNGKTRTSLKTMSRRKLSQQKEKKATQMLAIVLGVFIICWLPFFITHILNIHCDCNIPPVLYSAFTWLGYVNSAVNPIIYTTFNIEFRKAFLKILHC", "test": "Dopamine D2 Receptor Binding Assay ([3H]spiperone, CHO-hD2L membranes)", "conditions": "[3H]spiperone 0.4 nM, HCl salt tested", "experimental": "1) Dopamine D2 Receptor Binding Assay\n[^3H]Spiperone binding to a membrane preparation from CHO-hD2L cells was carried out in 250 μL of 50 mM Tris-HCl buffer containing 100 mM NaCl, 1 mM MgCl2 and 1% DMSO at pH 7.4. Duplicate samples containing (in order of addition) the test compound, 0.4 nM [^3H]spiperone and approximately 12 μg protein were incubated for 120 min at room temperature. Bound radioligand was separated by rapid filtration under reduced pressure through Whatman GF/B glass fiber filters previously treated with 0.3% polyethyleneimine (PEI). Radioactivity retained on the filter was determined by liquid scintillation spectrophotometry. Specific binding determined in the presence of 1 mM haloperidol was 95%."}, "[2]": {"target": "T2, Serotonin 1A (5-HT1A) Receptor (Homo sapiens, UniProt P08908)", "T2 construct": "expressed in transfected cells; host or cells: HeLa cells", "T2 sequence (P08908 1-422)": "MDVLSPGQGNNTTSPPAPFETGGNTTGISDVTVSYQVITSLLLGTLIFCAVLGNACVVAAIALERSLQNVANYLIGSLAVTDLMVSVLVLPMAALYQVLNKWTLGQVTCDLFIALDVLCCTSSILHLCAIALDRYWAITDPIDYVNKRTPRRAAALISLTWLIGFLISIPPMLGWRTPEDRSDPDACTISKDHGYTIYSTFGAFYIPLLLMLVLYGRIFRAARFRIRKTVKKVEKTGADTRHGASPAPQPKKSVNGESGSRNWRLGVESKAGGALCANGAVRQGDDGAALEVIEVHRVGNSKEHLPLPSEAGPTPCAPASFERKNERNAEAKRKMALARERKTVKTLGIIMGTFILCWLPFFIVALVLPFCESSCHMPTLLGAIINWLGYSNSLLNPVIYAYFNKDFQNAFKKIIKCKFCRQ", "test": "Serotonin 1A (5-HT1A) Receptor Binding Assay ([3H]8-OH-DPAT, transfected HeLa membranes)", "conditions": "[3H]8-OH-DPAT 2.0 nM, transfected HeLa cell membranes; HCl salt tested", "experimental": "2) Serotonin 1A (5-HT1A) Receptor Binding Assay\nThe assay was conducted in membranes prepared from HeLa cells transfected with the cDNA for […] receptors using [^3H] 8-hydroxy-2-(di-n-propylamino)-tetraline ([^3H] 8-OH-DPAT, final concentration 2.0 nM) as reference […] receptor agonist. Assay buffer consisted of 50 mM Tris-HCl with 10 mM MgSO4, 0.5 mM EDTA and 0.1% ascorbic acid, at pH 7.4 (250 μL total volume). Triplicate samples containing (in order of addition) the test compound, 100× in 100% DMSO, [^3H] 8-OH-DPAT and cell homogenate was incubated for 2 hr at room temperature. Experiments were terminated by rapid filtration through Whatman GF/B glass fiber filters soaked in assay buffer with 0.3% PEI by washing three timnes with 1 mL of wash buffer (50 mM Tris-HCl, pH 7.4) using a Brandel MLR-96T cell harvester. Specific binding (85%) was determined in the presence of 10 μM 8-OH-DPAT."}, "[3]": {"target": "T3, h5-HT1A (CHO p-5 cells) (Homo sapiens, UniProt P08908)", "T3 construct": "expressed in transfected cells", "T3 sequence (P08908 1-422)": "T2 sequence (P08908 1-422)", "test": "[3H]Thymidine Uptake Assay for Serotonin 1A Intrinsic Activity", "format": "cell-based", "conditions": "relative to 1 μM (+)-8-OH-DPAT classified as 100% response; HCl salt tested", "experimental": "4) [^3H]Thymidine Uptake Assay for Serotonin 1A Intrinsic Activity\nCHO p-5 cells transfected with h5-HT1A cDNA were seeded into 96-well plates at a density of approximately […] cells/well. These were grown for 3 days at 37° C. in an incubator with alpha minimum essential medium (αMEM) and 10% fetal calf serum containing penicillin (100 U/mL) and streptomycin (100 μg/mL). The wells were then rinsed by washing twice with 200 μL of serum-free media, and 90 μL serum-free media was added to each well. The plates were incubated for two to three hours, then 10 μL of serum-containing media (positive control), vehicle (10 μL DMSO), negative control (10 μL of an antagonist in DMSO) or different concentrations of the test compound and standards (10 μL DMSO solution) in serum-free media were added to appropriate wells. The plates were incubated for 18 hrs. Then [^3H]thymidine was added (0.5 μCi/well in 10 μL of serum-free media) after which the plates were returned to the incubator. Four hours later, trypsin (0.25%) was added (100 μL/well), and plates were returned again to the incubator. The assay was terminated 1 hr later by rapid filtration through Whatman GF/C glass fiber filters. […] Radioactivity remaining on the filters was estimated with a Wallac 1205 Betaplate liquid scintillation counter (50% efficiency). […]"}, "[4]": {"target": "T4, D2 receptor (CHO pro-5 cells) (Homo sapiens, UniProt P14416)", "T4 construct": "expressed in transfected cells; host or cells: CHO pro-5 cells", "T4 sequence (P14416 whole entry)": "as the sequence (P14416 whole entry) above", "test": "[3H]Thymidine Uptake Assay for Dopamine D2 Intrinsic Activity", "format": "cell-based", "conditions": "relative to 1 μM Quinpirole classified as 100% intrinsic activity; HCl salt tested", "experimental": "3) [^3H]Thymidine Uptake Assay for Dopamine D2 Intrinsic Activity\nThe assay was conducted using CHO pro-5 cells containing the D2 receptor and conventional 96-well sterile plates. Serum was removed from the cells by washing the cells twice with 200 μL of serum-free media. 90 μL serum-free media was added to each well. The plates ware incubated for two to three hours. 10 μL of serum-containing media, as a positive control, vehicle (serum-free media), antagonist control (haloperidol), or the test compound, and standards (10 μL of a 10 μM solution for a final concentration of 1 μM) in serum-free media were added to wells. The plates were returned to the incubator. Eighteen hours later [^3H]thymidine was added (0.5 μCi/well in 10 μL of serum-free media) and the plates were returned to the incubator. Four hours later trypsin (0.25%) was added (100 μL/well). The plates were returned to the incubator, once again. One hour later the assay was terminated by rapid filtration through Whatman GF/C glass fiber filters. Filters were washed four times with […] of 50 mM Tris-HCl pH 7.0 buffer, for example, using a Brandel MLR-96T cell harvester. Radioactivity remaining on the filters was estimated with a Wallac 1205 Betaplate liquid scintillation counter (50% efficiency). Intrinsic activity is defined as total uptake (1 μM Quinpirole) minus serum-free media (no uptake). […]"}}, "data": [{"smiles": "O=c1ccc2ccc(OCCCCN3CCN(c4cccc(Cl)c4C(F)(F)F)CC3)nc2[nH]1", "note": "[compound of formula (I), 7-(4-{4-[3-chloro-2-(trifluoromethyl)phenyl]piperazine-1-yl}butoxy)-[1,8]-naphthyridin-2(1H)-one]", "values": [{"measurement": "Ki", "setting": "[1]", "value": 3.9, "unit": "nM"}, {"measurement": "Ki", "setting": "[2]", "value": 4, "unit": "nM"}, {"measurement": "Emax", "setting": "[3]", "value": 90, "unit": "%"}, {"measurement": "Emax", "setting": "[4]", "value": 55, "unit": "%"}]}]}
